Source: patent US7053194B2, “Compositions and methods for p53-mediated repression of gene expression” (Fox Chase Cancer Center, priority 1999, dated 2006)
Square brackets hold non-standard residues; d marks the D form. Peptide text beside a SMILES is read from it. Nle = CCCC[C@H](N)C(=O)O

Assays:
[1] = test system: MCF-7 cells; assay: Immunoprecipitation-western analysis of p53 and p53-mSin3a complexes; assay type: cell-based, human; settings: MCF-7, 50 uM ALLN, 2 hours
Description: (§1) Sub-confluent cultures of MCF 7 and A2780 cells were treated with 100 nM trichostatin A (TSA, Sigma)for 2 hours, followed by incubation with 0.5 ug/ml adriamycin (doxorubicin, Sigma) for the indicated timepoints. Va15 cells grown at 39 degrees were treated with 100 nM TSA for two hours, followed by temperature shift to 32 degrees for 12 hours. p53 induction was monitored by western analysis of 100 ug protein as described (Murphy et al., Genes & Devel. 10:2971–2980, 1996), using 0.1ug/ml DO-1 (Ab-6, Calbiochem) or 421 (Ab-1, Calbiochem). MDM2 induction was monitored using the monoclonal antibody 2A10, kindly provided by Arnold Levine (Rockefeller University). For UV treatments, cells were irradiated with 4 J/m2 of UV-C with a Spectroline X series ultraviolet lamp, and output was monitored with a traceable UV light meter (Fisher Scientific). For ALLN treatment, MCF-7 cells were treated with 50 uM ALLN (calpain I inhibitor, Sigma) made in DMSO (dimethyl sulfoxide, Sigma) or with DMSO alone for 2 hours prior to harvesting.
Sub-confluent cultures of cells were harvested and lysed in NP-40 buffer supplemented with protease inhibitors (1 mM PMSF, 10 ug/ml pepstatin A, 10 ug/ml aprotinin, and 5ug/ml leupeptin). Protein concentrations were determined by the method of Bradford (BioRad). Equal ug amounts of protein (between 2.0 and 3.0 mg) were immunoprecipitated with 1 ug of each antibody, except for Va15 immunoprecipitations, which used 1000 ug protein, as described (Murphy et al., Genes & Devel. 10:2971–2980, 1996). For p300, antibody N15 (Santa Cruz Biotechnology) and AB-1 (Calbiochem) yielded similar results. Each IP was washed twice in NP-40 buffer (Wu, et al., Genes & Devel. 7:1126–1132, 1993), followed by 2 washes in RIPA buffer (50 mM Tris pH 7.4/150 mM NaCl/1% Triton X 100/0.1% SDSI 1% Na deoxycholate). Immunoprecipitations were run on 7.5–10% SDS-PAGE gels and transferred overnight onto Immuno-Blot PVDF membrane (BioRad). […]
These complexes persisted under stringent washing conditions (RIPA buffer washes, see Materials and Methods), and were not present using control antisera (rabbit IgG, lane 1). […] We next analyzed the p53-mSin3a interaction following post-translational stabilization of p53 mediated by DNA damaging agents. […]
We next analyzed the time-course of the p53-mSin3a interaction following exposure of cells to the DNA damaging agent adriamycin (doxorubicin). Both p53-mSin3a and p53 p300 complexes were monitored by IP-western analysis in a time course following adriamycin treatment of MCF-7 cells. As a control, p53 was immunoprecipitated using polyclonal antisera generated against full-length p53 (Santa Cruz Biotechnology). p53 levels were also assessed at each time point by western analyses (data not shown). […]

[2] = test system: A2780 cells; assay: Northern analysis of stathmin mRNA after adriamycin treatment; assay type: cell-based, human; settings: A2780, co-incubation with TSA, data not shown
Description: as §1
(§2) Total RNA was isolated from cells using CsC1 purification (Murphy et al., Genes & Devel. 10:2971–2980, 1996) or using Trizol, as per the manufacturer (Gibco/BRL). Northern analyses were performed as described (Murphy et al., Genes & Devel. 10:2971–2980, 1996). Probes for Northerns were radio labeled using random primers (Prime-It-II, Stratagene) and α^32P dCTP (NEN). Autoradiographs were quantitated using NIH image software. The average values from three independent experiments were plotted onto bar graphs following normalization to GAPDH.
(§3) To extend these observations, the human tumor derived cell lines MCF7 (breast carcinoma)and A2780 (ovarian carcinoma) were analyzed following treatment with adriamycin to activate the endogenous, wild type p53 protein. Because of difficulties detecting human Map4 message, we analyzed the mRNA levels of stathmin (also called oncoprotein 18). We recently identified stathmin as a p53-repressed gene. A time course of treatment of MCF-7 cells with the DNA-damaging agent adriamycin (doxorubicin, DOX) results in approximately 30% reduction of stathmin RNA levels after 8 hours and 75% reduction after 24 hours. We chose to focus further on the 12 hour timepoint of adriamycin treatment, where 50% repression of stathmin was evident, in order to limit the toxicity sometimes associated with TSA (Yoshida et al., J Biol Chem 265:17174–17179, 1990). […] The results of three independent experiments indicate that the repression of stathmin expression evident after 12 hours of adriamycin treatment is completely abrogated by incubation with TSA. In contrast, neither the post-translational stabilization of p53 by adriamycin (DOX) nor the induction of the p53 response genes mdm2 and p21/waf1 were affected by TSA. […] We have performed identical experiments in A2780 cells (ovarian carcinoma, wt p53).

[3] = test system: MCF-7 cells; assay: as above; assay type: cell-based, human
Description: as §1, §2, §3

[4] = test system: Va15 cells; assay: Northern analysis of Map4 mRNA after p53 induction by temperature shift; assay type: cell-based, murine; settings: temperature shift to 32 degrees (wt p53), 100 nM TSA
Description: as §1
Total RNA was isolated from cells using CsC1 purification (Murphy et al., Genes & Devel. 10:2971–2980, 1996) or using Trizol, as per the manufacturer (Gibco/BRL). Northern analyses were performed as described (Murphy et al., Genes & Devel. 10:2971–2980, 1996). […] Autoradiographs were quantitated using NIH image software. […]

[5] = test system: Vm10 cells; assay: Flow cytometry of sub-G1 population; assay type: cell-based, murine; settings: Vm10 at 32 degrees (wt p53), 100 nM TSA, data not shown
[6] = test system: Vm10 cells; assay: AMC caspase assay specific for caspase 3 (apoptosis); assay type: cell-based, murine
Description: Apoptosis was quantitated using the AMC caspase assay specific for caspase 3 (Pharmingen). Vm10 cells were grown at 39 degrees or temperature-shifted to 32 degrees for 24 hours in the presence or absence of 100 nM trichostatin A (TSA). Vm10 cells at 39 degrees were treated with staurosporine (Calbiochem) at 100 nM, or dilution vehicle (dimethyl sulfoxide), or tumor necrosis factor alpha plus cycloheximide (10 ng/mL TNFα, RD Systems, plus 40 ug/mL cycloheximide, Sigma). Cells were harvested, lysed, and lysate was monitored for the caspase-3-dependent hydrolysis of the fluorogenic substrate Ac-DEVD-AMC, according to protocols derived from the manufacturer (Pharmingen). As a control for non-specific proteolysis, lysates from 39 degrees and 32 degrees were also assayed in the presence of the caspase-3 inhibitor Ac-DEVD-CHO (N-acetyl-Asp-Glu-Val Asp-aldehyde, Pharmingen). Fluorescence emissions were quantified on a spectrofluorometer (VersaFluor Cuvette Fluorometer) with excitation wavelength of 360 nm. and emission of 460 nm. The data presented represent duplicate readings of the averaged values from two (TNFα and staurosporine) or three (temperature shift) independent experiments.
In order to assess the contribution of p53-mediated repression to apoptosis, we utilized the cell line Vm10. This murine cell line contains a stably-transfected p53 gene encoding a temperature-sensitive protein, as well as a constitutively expressed c-myc proto-oncogene; the characteristics of this line, and its ability to undergo apoptosis at 32 degrees, have been described (Chen et al., Mol Med 1:142–152, 1996). Temperature shift and wt p53 induction of these cells results in a significant increase in caspase-3 dependent AMC-DEVD hydrolysis, a read-out for apoptosis, as measured in a spectrofluorometric assay. […] Therefore, the ability of TSA to inhibit apoptosis is specific for p53-dependent apoptosis.

[7] = test system: H1299 human lung adenocarcinoma; assay: Northern analysis of stathmin mRNA in p53-null cells; assay type: cell-based; settings: H1299, null for p53
[8] = test system: Va15 cells; assay: Flow cytometric analysis of cell cycle distribution; assay type: cell-based, murine; settings: Va15 cells cultured at 32 degrees, TSA treatment, data not shown
[9] = test system: Va15 cells; assay: Western analysis of survivin in nocodazole-arrested cells; assay type: cell-based, murine; settings: Va15 at 39 degrees, nocodazole alone, twenty-four hours
Description: Western analysis was performed essentially as described (Murphy et al., 1999). Briefly, subconfluent cells were harvested and lysed in RIPA buffer (50 mM Tris at pH 7.4, 150 mM NaCl, 1% Triton X-100, 0.1% SDS, and 1% sodium deoxycholate) supplemented with protease inhibitors (1 mM PMSF, […], […], and […]). Protein concentrations were determined using the Bio-Rad Dc Protein Assay (Bio-Rad). Equal amounts of protein (between 50 and 120 ugs) were run on 10% or 12% SDS-polyacrylamide gels and transferred overnight onto PVDF membrane (Bio-Rad). Western blots were incubated in antibody in 5% nonfat dry milk in phosphate-buffered saline supplemented with 0.2% Tween 20 (PBST). Blots were incubated with primary antibody at the following dilutions: p53 Ab-6 (Calbiochem) 1:1000, actin, AC-15 (Sigma) at 1:5000, p21/waf1 (Calbiochem) 1:1000 and survivin (Novus) 1:1000. Blots were washed with PBST and incubated in horseradish peroxidase-linked secondary antibody (Jackson ImmunoResearch Laboratories) and developed via the chemiluminescence protocol provided by the manufacturer (NEN).
Va15 cells (temperature-sensitive p53 which is wild type at 32 degrees) were grown at 39 degrees (mutant p53, asynchronous growth), and arrested in G2/M following twenty-four hours of nocodazole treatment. […]

## CCCC[C@@H](C=O)NC(=O)[C@H](CC(C)C)NC(=O)[C@H](CC(C)C)NC(C)=O [ALLN] (Ac-Leu-Leu-[Nle]-aldehyde)
[1]
  increase in p53 protein: approximately 4 fold
  increase in the p53-mSin3a complex: undetectable increase in the p53-mSin3a complex

## CC(/C=C/C(=O)NO)=C\[C@@H](C)C(=O)c1ccc(N(C)C)cc1 [TSA, trichostatin A]
[2]
  effect on adriamycin-induced repression of stathmin: abrogate completely this repression
[3]; MCF-7, 100 nM TSA alone
  effect on stathmin levels, TSA alone: undetectable effects on stathmin levels
[3]; MCF-7, 100 nM TSA plus adriamycin 12 hours
  effect on reduction of stathmin levels following adriamycin treatment: completely abrogate the reduction of stathmin levels
[4]
  Map4 RNA levels, % of starting levels: approximately 80%
[5]
  sub-G1 population: reduces the sub-G1 population
[6]; Vm10 at 32 degrees (wt p53), 100 nM TSA, 24 hours
  inhibition of caspase-3-dependent AMC hydrolysis: greater than 4 fold
[6]; Vm10 at 39 degrees (mutant p53), TSA treatment
  inhibition of apoptosis induced by staurosporine or tumor necrosis factor alpha: unable to significantly inhibit apoptosis
[7]
  effect on stathmin levels: neither TSA nor adriamycin had any effect on stathmin levels
[8]
  cell cycle distribution: did not alter the cell cycle distribution

## COC(=O)Nc1nc2ccc(C(=O)c3cccs3)cc2[nH]1 [nocodazole]
[9]
  survivin expression: increased survivin expression

## N-acetyl-Asp-Glu-Val Asp-aldehyde [Ac-DEVD-CHO]
[6]; Vm10 lysate, addition of Ac-DEVD-CHO
  AMC cleavage in lysate with caspase-3 inhibitor added: negligible AMC cleavage
